# According to patent publication US4263286A, “Therapeutic agent for consciousness disorder and perception and movement disorder” (Nippon Shoji Kaisha, Ltd., priority 1978, dated 1981):
# Where a name gives a salt, the structure may show the parent alone.
# Legend:
# [1] = tested on: rabbits whose internal capsule was destroyed; settings: known therapeutic agents; already confirmed by experiments; cited from earlier work
# sciatic nerve = assay: Afferent evoked potential in the cerebral cortex in response to stimulation of the sciatic nerve; assay type: in vivo
# Protocol: In order to test the effect of the active compound of the present invention on perception, an experiment was carried out on afferent evoked potential in response to stimulation of the sciatic nerve.
# When the sciatic nerve is stimulated, the potential evoked in the cerebral cortex is recorded and summed up. These evoked electric potentials are firstly three small negative responses, subsequently a positive response and followed by two large negative responses, which are designated as N1, N2, N3, P, N4 and N5, respectively.
# In order to examine the effect of a compound of the present invention: dilinoleoylphosphatidic acid disodium salt on these components, N1, N2, N3, P, N4 and N5, sciatic nerve was simulated once per 1 second and the data of 50 times of stimulus were recorded and summed up. The results are shown in the accompanying FIGS. 15, 16, 17, 18, 19 and 20 which correspond to the data of N1, N2, N3, P, N4 and N5, respectively.
# male mice = assay: Toxicity in male mice, tail intravenous; assay type: in vivo, mouse; settings: 100 mg/kg tail intravenous over 30 seconds; observed 75 hours
# Spragne-Dowley rats = assay: 7-day toxicity in rats; settings: rat, in vivo
# ICR mice = assay: 7-day toxicity in ICR mice; settings: mouse, in vivo
compound,measurement,setting,value
"C[N+](C)(C)CCOP(=O)(O)OP(=O)([O-])OC[C@H]1O[C@@H](n2ccc(N)nc2=O)[C@H](O)[C@@H]1O [Citicoline, cytidine diphosphate choline]",effect on thresholds of evoked muscular discharge in fore- and hind-limbs,[1],decreasing effect of the thresholds of evoked muscular discharge
"CN(C)CCOC(=O)COc1ccc(Cl)cc1.Cl [Meclofenoxate hydrochloride, (4-chlorophenoxy)acetic acid 2-(dimethylamino)ethyl ester hydrochloride]",effect on thresholds of evoked muscular discharge in fore- and hind-limbs,[1],decreasing effect of the thresholds of evoked muscular discharge
"Cc1ncc(CSSCc2cnc(C)c(O)c2CO)c(CO)c1O [Pyrithioxin, 3,3'-(dithiodimethylene)-bis[5-hydroxy-6-methyl-4-pyridinemethanol]]",effect on thresholds of evoked muscular discharge in fore- and hind-limbs,[1],decreasing effect of the thresholds of evoked muscular discharge
CCCCC/C=C\C/C=C\CCCCCCCC(=O)OCC(COP(=O)(O)O)OC(=O)CCCCCCC/C=C\C/C=C\CCCCC (centres unmarked) [dilinoleoylphosphatidic acid disodium salt],effect on the afferent pathway,sciatic nerve; in vivo,facilitatory effect on the afferent pathway
same,effect on evoked potential components N1 and N2,"sciatic nerve; stimulation once per 1 second, 50 summed, FIGS. 15, 16","facilitatory effect on the components, N1 and N2, particularly on N1"
same,mortality,male mice,no mouse was died
Cytochrome C: already used as therapeutic agent for the treatment of consciousness disorder and perception and movement disorder,effect on thresholds of evoked muscular discharge in fore- and hind-limbs,[1],decreasing effect of the thresholds of evoked muscular discharge
polyenephosphatidylcholine,difference between male and female,Spragne-Dowley rats,no difference between male and female
same,symptoms,Spragne-Dowley rats,no abnormal symptom was observed except that the voluntary movement was slightly inhibited in the groups administered in a large dose
same,difference between male and female,ICR mice,no difference between male and female
same,symptoms,ICR mice,no abnormal symptom was observed except that the voluntary movement was slightly inhibited in the groups administered in a large dose
